Assay results published in paper PMC4574636 (Biochemical pharmacology, 2015).
Numbering of substitutions follows the chain as printed. Like-named read-outs stand apart in the source and are kept apart here.

Tests used:
[1] = target: T1, human AOX1 V1016R (Homo sapiens, UniProt Q06278, V1016R); test: Methotrexate hydroxylation by purified recombinant human AOX1 V1016R mutant; format: in vitro ADME; settings: V1016R single mutant
T1 sequence (Q06278 1-1338 V1016R): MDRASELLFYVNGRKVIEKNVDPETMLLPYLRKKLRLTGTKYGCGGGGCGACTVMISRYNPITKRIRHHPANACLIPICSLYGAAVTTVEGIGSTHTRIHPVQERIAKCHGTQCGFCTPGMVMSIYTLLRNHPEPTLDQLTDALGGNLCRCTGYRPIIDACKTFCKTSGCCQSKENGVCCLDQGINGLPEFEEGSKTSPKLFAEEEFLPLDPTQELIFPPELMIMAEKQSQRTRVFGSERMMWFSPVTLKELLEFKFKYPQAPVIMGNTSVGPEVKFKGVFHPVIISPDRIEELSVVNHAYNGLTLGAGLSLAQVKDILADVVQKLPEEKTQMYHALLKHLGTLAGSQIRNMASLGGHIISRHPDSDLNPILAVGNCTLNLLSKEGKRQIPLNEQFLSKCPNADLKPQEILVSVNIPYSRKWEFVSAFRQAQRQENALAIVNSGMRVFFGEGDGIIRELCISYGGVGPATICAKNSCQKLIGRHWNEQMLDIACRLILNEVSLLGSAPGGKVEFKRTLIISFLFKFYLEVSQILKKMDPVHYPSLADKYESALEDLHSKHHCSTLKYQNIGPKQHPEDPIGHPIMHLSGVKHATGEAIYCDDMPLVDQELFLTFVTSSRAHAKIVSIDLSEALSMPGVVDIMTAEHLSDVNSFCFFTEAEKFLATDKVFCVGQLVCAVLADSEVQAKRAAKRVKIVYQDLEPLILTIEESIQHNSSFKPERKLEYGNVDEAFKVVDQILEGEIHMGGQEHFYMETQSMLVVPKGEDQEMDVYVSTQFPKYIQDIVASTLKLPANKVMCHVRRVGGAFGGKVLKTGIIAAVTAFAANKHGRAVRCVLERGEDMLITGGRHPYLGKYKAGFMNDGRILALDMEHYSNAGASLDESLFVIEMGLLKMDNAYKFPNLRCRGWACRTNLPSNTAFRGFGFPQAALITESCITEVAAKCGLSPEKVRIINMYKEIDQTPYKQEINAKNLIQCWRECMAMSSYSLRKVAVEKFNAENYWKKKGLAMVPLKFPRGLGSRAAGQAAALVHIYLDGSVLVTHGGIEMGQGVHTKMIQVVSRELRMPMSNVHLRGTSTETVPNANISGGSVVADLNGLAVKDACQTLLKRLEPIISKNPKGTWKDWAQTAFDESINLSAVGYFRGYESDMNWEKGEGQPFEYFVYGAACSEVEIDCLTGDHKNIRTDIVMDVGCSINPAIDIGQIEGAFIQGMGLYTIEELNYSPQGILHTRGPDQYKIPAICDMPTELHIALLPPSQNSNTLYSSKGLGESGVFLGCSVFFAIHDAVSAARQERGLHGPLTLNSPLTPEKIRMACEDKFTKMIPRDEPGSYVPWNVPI

[2] = tested on: aldehyde oxidase (AOX); settings: rat liver cytosol, mean ± SEM, estimate, saturation incomplete
[3] = target: T2, human AOX1 I1085A+ V1016R (Homo sapiens, UniProt Q06278, I1085A/V1016R); settings: I1085A+ V1016R double mutant, Figure 5
T2 sequence (Q06278 1-1338 V1016R/I1085A): T1 sequence (Q06278 1-1338 V1016R) with I1085A

CN(Cc1cnc2nc(N)nc(N)c2n1)c1ccc(C(=O)N[C@@H](CCC(=O)O)C(=O)O)cc1 [Methotrexate, 4-amino-N^1^0-methylpteroglutamic acid]
Km / affinity vs wild type ([1]; Figure 5): decreased affinity for methotrexate compared to wild type AOX1
Methotrexate hydroxylation activity vs wild type ([1]; p < 0.01, Figure 5): significant decrease
Vmax [2]: 50 ± 3 pmol/min/mg
Vmax ([2]; listed as methotrexate): 40 to 70 pmol/min/mg
Km / affinity vs wild type [3]: decreased affinity for methotrexate compared to wild type AOX1
Methotrexate hydroxylation activity [3]: significant decrease in activity compared to the wild type and I1085A
